Test results from patent US9717719B2, “Treatment, prevention, and reversal of alcohol-induced liver disease” (Rhode Island Hospital, priority 2006, dated 2017).
“Also recorded” adds a separate entry of the source.

Legend:
Assay type in all cases: in vivo, rat
[1] = system: liver mRNA levels of albumin, ASBT, GFAP, KCR, desmin, and collagen; test: Liver cell profiling by qRT-PCR; settings: for desmin mRNA / ASBT mRNA / albumin mRNA / GFAP mRNA / collagen mRNA: relative to vehicle
Description: Adult male (˜200-250 g) Long Evans rats (Harlan Sprague Dawley, Inc., Indianapolis, Ind.) were pair-fed with isocaloric liquid diets (BioServ, Frenchtown, N.J.) containing 0% (control) or 37% ethanol by caloric content (9.2% v/v) for 8 weeks. During the week prior to initiating the experiment, rats were adapted to the ethanol-containing diets by sequentially feeding them for two days each with diets containing 8%, 17%, 24%, and then 37% ethanol. Chow fed control rats were also studied. Rats were monitored daily to ensure equivalent food consumption and maintenance of body weight. During the last 3 weeks of the experiment while being maintained on either the 0% or 37% ethanol-containing liquid diets, rats in both groups were administered twice weekly (Mondays and Thursdays) intra-peritoneal (i.p.) injections of vehicle (saline), a PPAR-α (GW7647; 25 μg/kg), PPAR δ (L-165,041; 2 μg/kg), or PPAR-γ (F-L-Leu; 20 μg/kg) agonist (CalBiochem, Carlsbad, Calif.). At the conclusion of the experiment, rats were anesthetized with vaporized isofluorane (SurgiVet, Inc. Waukesha, Wis.), and liver and blood were harvested for analysis. Liver tissue samples were immersion fixed in Histochoice (Amresco Corp., Solon, Ohio) and embedded in paraffin. Adjacent histological sections were stained with Hematoxylin and Eosin or Gomori's Trichrome and examined under code. In addition, liver tissue samples were snap-frozen in a dry ice methanol bath and then stored at −80° C. for later mRNA and protein studies. Throughout the experiment, rats were housed under humane conditions and kept on a 12-hour light/dark cycle with free access to food. All experiments were performed in accordance with protocols that conform to guidelines established by the National Institutes of Health and were approved by Institutional Animal Care and Use Committee at the Lifespan-Rhode Island Hospital.
(§1) Total RNA was extracted from liver tissue using TRIzol® reagent (Invitrogen, Carlsbad, Calif.) according to the manufacturer's protocol. RNA concentrations and purity were determined from the absorbances measured at 260 nm and 280 nm. RNA (2 μg) was reverse transcribed using the AMV First Strand cDNA synthesis kit (Roche Diagnostics Corporation, Indianapolis, Ind.) and random oligodeoxynucleotide primers. Quantitative reverse transcriptase polymerase chain reaction (qRT-PCR) assays were used to measure steady-state levels of specific mRNA transcripts. PCR amplifications were performed in 20 μl reactions containing cDNA generated from 2.5 ng of original RNA template, 300 nM each of gene specific forward and reverse primer (Table 2), and 10 μl of 2× QuantiTect SYBR Green PCR Mix (Qiagen Inc, Valencia, Calif.). The amplified signals were detected continuously with the Mastercycler ep realplex instrument and software (Eppendorf AG, Hamburg, Germany). The amplification protocol used was as follows: initial 15-minutes denaturation and enzyme activation at 95° C., 45 cycles of 95° C.×15 sec, 55°-60° C.×30 sec, and 72° C.×30 sec. Annealing temperatures were optimized using the temperature gradient program provided with the Mastercycler ep realplex software.
In preliminary studies, SYBR Green-labeled PCR products were evaluated by agarose gel electrophoresis, and authenticity was verified by nucleic acid sequencing. Complementary (c) DNAs were cloned into PCR-II vectors (Invitrogen, Carlsbad, Calif.). […] Serial dilutions of recombinant plasmid DNA containing target sequences were used as standards in PCR reactions, and regression lines generated from the Ct values of the standards were used to calculate mRNA abundance. Relative mRNA expression was expressed as the ng ratio of specific mRNA to ribosomal (r) 18S measured in the same samples because 18S is highly abundant and the levels are not modulated with disease state. Statistical comparisons were made using the calculated mRNA/18S ratios. […]

Long Evans rats = test: Liver histology in the chronic ethanol exposure model; settings: for extents of micro- and macrosteatosis / liver histology (hepatic architecture): ethanol-fed rats; for liver histology (hepatic architecture): relative to vehicle
Description: (§2) Chow fed control rats were also studied. Rats were monitored daily to ensure equivalent food consumption and maintenance of body weight. […] At the conclusion of the experiment, rats were anesthetized with vaporized isofluorane (SurgiVet, Inc. Waukesha, Wis.), and liver and blood were harvested for analysis. Liver tissue samples were immersion fixed in Histochoice (Amresco Corp., Solon, Ohio) and embedded in paraffin. Adjacent histological sections were stained with Hematoxylin and Eosin or Gomori's Trichrome and examined under code. In addition, liver tissue samples were snap-frozen in a dry ice methanol bath and then stored at −80° C. for later mRNA and protein studies. Throughout the experiment, rats were housed under humane conditions and kept on a 12-hour light/dark cycle with free access to food. All experiments were performed in accordance with protocols that conform to guidelines established by the National Institutes of Health and were approved by Institutional Animal Care and Use Committee at the Lifespan-Rhode Island Hospital.

AAH and GAPDH = test: ELISA of AAH and GAPDH immunoreactivity in liver
Description: as §2
ELISAs were used to measure immunoreactivity corresponding to AAH, GAPDH and β-actin (negative control). ELISAs were performed in 96-well opaque polystyrene plates (Nalge Nunc International, Rochester, N.Y.). RIPA protein extracts diluted in TBS (40 ng/100 μl) were adsorbed to the bottoms of the wells by overnight incubation at 4° C. After rinsing in TBS, the wells were blocked for 4 hours with 250 μl/well of 2% BSA in TBS. The proteins were then incubated with primary antibody (0.01-0.1 μg/ml) for 1 hour at room temperature. Immunoreactivity was detected with HRP-conjugated secondary antibody (1:10000; Pierce) and the Amplex Red soluble fluorophore (Molecular Probes). […] Binding specificity was determined from parallel negative control incubations with non-relevant antibodies, or with the primary or secondary antibody omitted. The mean levels of specific AAH, GAPDH, and β-actin immunoreactivity were used for inter-group statistical comparisons.

[2] = system: insulin, IGF-I, IGF-II, their receptors, IRS-1, IRS-2, IRS-4 mRNA in liver; test: qRT-PCR of hepatic insulin and IGF polypeptides, their receptors, and IRS molecules; settings: relative to vehicle; for IGF-II mRNA: chronic ethanol feeding; for IGF-I mRNA: control rats
Description: as §2, §1
Complementary (c) DNAs were cloned into PCR-II vectors (Invitrogen, Carlsbad, Calif.). […] Serial dilutions of recombinant plasmid DNA containing target sequences were used as standards in PCR reactions, and regression lines generated from the Ct values of the standards were used to calculate mRNA abundance. Relative mRNA expression was expressed as the ng ratio of specific mRNA to ribosomal (r) 18S measured in the same samples because 18S is highly abundant and the levels are not modulated with disease state. Statistical comparisons were made using the calculated mRNA/18S ratios.

[3] = control livers, relative to vehicle (not statistically significant)
[4] = ethanol-exposed livers, relative to vehicle (statistically significant)

Structure (SMILES)	desmin mRNA ([1]; control group)	ASBT mRNA ([1]; control livers)	albumin mRNA ([1]; control livers)	KCR mRNA [1, 3]	desmin mRNA ([1]; ethanol-exposed livers)	KCR mRNA [1, 4]	GFAP mRNA ([1]; ethanol-exposed rats)	ASBT mRNA ([1]; ethanol-fed rats)	albumin mRNA ([1]; ethanol-fed rats)	collagen mRNA ([1]; ethanol-fed rats)	extents of micro- and macrosteatosis (Long Evans rats)	liver histology (hepatic architecture) (Long Evans rats)	AAH expression (ELISA) (AAH and GAPDH; control livers)	GAPDH expression (ELISA) (AAH and GAPDH; ethanol-exposed livers)	IGF-II mRNA [2]	insulin gene expression ([2]; control group)	IGF-I mRNA [2]	collagen mRNA ([1]; controls)	insulin gene expression ([2]; ethanol-exposed group)	other results
CC(C)C[C@H](NC(=O)OCC1c2ccccc2-c2ccccc21)C(=O)O [PPAR-γ, F-L-Leu]	significantly reduced	decreased	significantly increased	increased	significantly increased	increased	significantly increased	did not significantly alter	did not significantly alter	significantly reduced	overtly reduced	reduced the disordered architecture; also recorded: most striking improvements in liver histology; also recorded: strikingly reduced the ethanol-associated architectural disarray and steatosis; also recorded: more effective than the PPAR-α agonist in restoring hepatic architecture	slightly reduced	significantly increased	significantly reduced	significantly increased	significantly increased			IRS-2 mRNA ([2]; ethanol-exposed rats): significantly reduced
CC(C)(Sc1ccc(CCN(CCCCC2CCCCC2)C(=O)NC2CCCCC2)cc1)C(=O)O [PPAR-α, GW7647]				increased	no significant effect	increased	significantly increased	significantly increased; also recorded: normalized	significantly increased; also recorded: normalized	further increased	overtly reduced	reduced the disordered architecture; also recorded: strikingly reduced the ethanol-associated architectural disarray and steatosis	no significant effect	no significant effect				increased	reduced	GFAP mRNA ([1]; control rats): significantly increased; liver histology (Long Evans rats; control rats, relative to vehicle-treated controls): no detectable histological changes in liver; also recorded: no detectable effects on liver histology; GAPDH expression (ELISA) (AAH and GAPDH; control livers): no significant effect; AAH expression (ELISA) (AAH and GAPDH; ethanol-exposed livers): no significant effect
CCCc1c(OCCCOc2ccc(OCC(=O)O)cc2)ccc(C(C)=O)c1O [PPAR-δ, L-165,041]	significantly reduced	decreased	significantly increased	increased	no significant effect	increased		did not significantly alter; also recorded: normalized	significantly increased; also recorded: normalized	significantly reduced	overtly reduced	reduced the disordered architecture; also recorded: most striking improvements in liver histology; also recorded: strikingly reduced the ethanol-associated architectural disarray and steatosis; also recorded: more effective than the PPAR-α agonist in restoring hepatic architecture	slightly reduced	significantly increased	significantly reduced	significantly increased	significantly increased	increased	reduced	IRS-2 mRNA ([2]; control group): significantly increased; insulin receptor mRNA ([2]; controls): increased; IRS-4 mRNA ([2]; ethanol-exposed group): significantly reduced; insulin receptor mRNA ([2]; ethanol-fed rat livers): significantly reduced; IRS-1 mRNA ([2]; ethanol-fed rats): significantly reduced
